Read-outs that look alike come from different tables or passages of the source.
How the values were obtained:
Type in all cases: in vivo
[1] = system: Mice; conditions: 6 days training
Method: 30 mice were divided into 3 groups (10 for each group, ? fifty-fifty): IV-12-1 (1 mg/kg), IV-12-2 (5 mg/kg) and NS. Half of the mice in each group were administrated (s.c.) in the morning and 30 minutes later put into a white box (with medicine), and trained for 30 minutes; Saline is administrated (s.c.) in the afternoon and 30 minutes later put into a black box (without medicine), and trained for 30 minutes. The other half of the group are given saline in the morning and IV-12 in the afternoon, other procedures are the same as above.
The two training periods were at least 6-hour apart and training was continuous for 6 days. On the 7th day, the staying time was tested in both of the boxes.

[2] = Summary of all three algogenic models; conditions: in words
Source text: All the compounds mentioned above have profound for further value development.

[3] = system: rats; experiment: Spontaneous withdrawal tests (body weight); conditions: for Weight after withdrawal compared with weight one day before withdrawal: IV-12-1 75 mg/kg; for Increase (%) of weight / Weight: IV-12-1 (75 mg/kg)

Question: For `Nc1ccc(CN2CCN(CC(=O)c3ccccc3)CC2)cc1` [IV-12, N^1-(4-aminobenzyl)-N^4-phenacyl piperazine], which “Staying time in box with medicine” value ([1]; 1 mg/kg s.c.) is on record?
Answer: 496.4 ± 73.4 s

Question: And the “Staying time in box with medicine” value ([1]; 5 mg/kg s.c.)?
Answer: 452.8 ± 119.5 s

Question: What about the “Analgesic effect on all three algogenic models” value [2] of the same compound?
Answer: powerful analgesic effects

Question: What about the “Sedative effect on all three algogenic models” value [2] of the same compound?
Answer: rather significant sedative effect

Question: What about the “Weight after withdrawal compared with weight one day before withdrawal” value ([3]; ♀, 18 h after withdrawal) of the same compound?
Answer: 1.01 ± 0.03

Question: What about the “Weight after withdrawal compared with weight one day before withdrawal” value ([3]; ♀, 42 h after withdrawal) of the same compound?
Answer: 1.02 ± 0.05

Question: And the “Weight after withdrawal compared with weight one day before withdrawal” value ([3]; ♀, 66 h after withdrawal)?
Answer: 1.03 ± 0.04

Question: And the “Weight after withdrawal compared with weight one day before withdrawal” value ([3]; ♀, 90 h after withdrawal)?
Answer: 1.04 ± 0.06

Question: And the “Weight after withdrawal compared with weight one day before withdrawal” value ([3]; ♀, 114 h after withdrawal)?
Answer: 1.06 ± 0.06

Question: What about the “Weight after withdrawal compared with weight one day before withdrawal” value ([3]; ♀, 162 h after withdrawal) of the same compound?
Answer: 1.08 ± 0.07

Question: What about the “Weight after withdrawal compared with weight one day before withdrawal” value ([3]; ♂, 18 h after withdrawal) of the same compound?
Answer: 1.01 ± 0.03

Question: And the “Weight after withdrawal compared with weight one day before withdrawal” value ([3]; ♂, 42 h after withdrawal)?
Answer: 1.02 ± 0.03

Question: What about the “Weight after withdrawal compared with weight one day before withdrawal” value ([3]; ♂, 66 h after withdrawal) of the same compound?
Answer: 1.04 ± 0.04

Question: What about the “Weight after withdrawal compared with weight one day before withdrawal” value ([3]; ♂, 90 h after withdrawal) of the same compound?
Answer: 1.06 ± 0.05

Question: What about the “Weight after withdrawal compared with weight one day before withdrawal” value ([3]; ♂, 114 h after withdrawal) of the same compound?
Answer: 1.08 ± 0.05

Question: What about the “Weight after withdrawal compared with weight one day before withdrawal” value ([3]; ♂, 138 h after withdrawal) of the same compound?
Answer: 1.11 ± 0.06

Question: And the “Weight after withdrawal compared with weight one day before withdrawal” value ([3]; ♂, 162 h after withdrawal)?
Answer: 1.12 ± 0.09

Question: And the “Increase (%) of weight” value ([3]; 12 h after withdrawal)?
Answer: 2.9%

Question: What about the “Weight” value ([3]; 12 h after withdrawal) of the same compound?
Answer: 248.1 ± 42 g

Question: And the “Weight” value ([3]; 18 h after withdrawal)?
Answer: 250.5 ± 39 g

Question: And the “Increase (%) of weight” value ([3]; 24 h after withdrawal)?
Answer: 2.2%

Question: What about the “Weight” value ([3]; 24 h after withdrawal) of the same compound?
Answer: 246.3 ± 37 g

Question: And the “Weight” value ([3]; 36 h after withdrawal)?
Answer: 253.9 ± 38 g

Question: And the “Increase (%) of weight” value ([3]; 42 h after withdrawal)?
Answer: 4.3%

Question: And the “Weight” value ([3]; 42 h after withdrawal)?
Answer: 251.3 ± 37 g

Question: And the “Increase (%) of weight” value ([3]; 48 h after withdrawal)?
Answer: 3.3%

Question: What about the “Weight” value ([3]; 48 h after withdrawal) of the same compound?
Answer: 249.1 ± 36 g

Question: And the “Increase (%) of weight” value ([3]; 60 h after withdrawal)?
Answer: 7.2%

Question: And the “Increase (%) of weight” value ([3]; 66 h after withdrawal)?
Answer: 4.8%

Question: And the “Weight” value ([3]; 66 h after withdrawal)?
Answer: 252.8 ± 37 g

Question: What about the “Increase (%) of weight” value ([3]; 72 h after withdrawal) of the same compound?
Answer: 4.4%

Question: What about the “Increase (%) of weight” value ([3]; 84 h after withdrawal) of the same compound?
Answer: 9.4%

Question: What about the “Weight” value ([3]; 84 h after withdrawal) of the same compound?
Answer: 263.7 ± 40 g

Question: What about the “Increase (%) of weight” value ([3]; 90 h after withdrawal) of the same compound?
Answer: 6.8%

Question: What about the “Weight” value ([3]; 90 h after withdrawal) of the same compound?
Answer: 257.4 ± 39 g

Question: What about the “Increase (%) of weight” value ([3]; 96 h after withdrawal) of the same compound?
Answer: 5.4%

Question: What about the “Weight” value ([3]; 96 h after withdrawal) of the same compound?
Answer: 254.2 ± 43 g

Question: And the “Increase (%) of weight” value ([3]; 108 h after withdrawal)?
Answer: 11.4%

Question: What about the “Weight” value ([3]; 108 h after withdrawal) of the same compound?
Answer: 268.6 ± 42 g

Question: And the “Increase (%) of weight” value ([3]; 114 h after withdrawal)?
Answer: 8.5%

Question: What about the “Weight” value ([3]; 114 h after withdrawal) of the same compound?
Answer: 261.6 ± 40 g

Question: What about the “Increase (%) of weight” value ([3]; 120 h after withdrawal) of the same compound?
Answer: 8.0%

Question: And the “Weight” value ([3]; 120 h after withdrawal)?
Answer: 260.3 ± 40 g

Question: And the “Increase (%) of weight” value ([3]; 132 h after withdrawal)?
Answer: 14.4%

Question: What about the “Weight” value ([3]; 132 h after withdrawal) of the same compound?
Answer: 275.8 ± 41 g

Question: And the “Increase (%) of weight” value ([3]; 138 h after withdrawal)?
Answer: 11.3%

Question: What about the “Weight” value ([3]; 138 h after withdrawal) of the same compound?
Answer: 268.3 ± 41 g

Question: What about the “Increase (%) of weight” value ([3]; 144 h after withdrawal) of the same compound?
Answer: 9.8%

Question: What about the “Weight” value ([3]; 144 h after withdrawal) of the same compound?
Answer: 264.7 ± 42 g

Question: What about the “Increase (%) of weight” value ([3]; 156 h after withdrawal) of the same compound?
Answer: 15.7%

Question: And the “Weight” value ([3]; 156 h after withdrawal)?
Answer: 279.0 ± 44 g

Question: And the “Increase (%) of weight” value ([3]; 162 h after withdrawal)?
Answer: 12.4%

Question: What about the “Weight” value ([3]; 162 h after withdrawal) of the same compound?
Answer: 271.0 ± 44 g

Question: And the “Increase (%) of weight” value ([3]; 168 h after withdrawal)?
Answer: 11.7%

Question: And the “Weight” value ([3]; 168 h after withdrawal)?
Answer: 269.2 ± 45 g

Question: And the “Weight” value ([3]; before withdraw)?
Answer: 241.1 ± 38 g
